Columns and labels:
Assay type in all cases: functional
RXF 393 = test: Growth inhibition of human RXF393 cells assessed as cell growth at 10^-8 M incubated for 48 hrs by sulforhodamine B assay relative to control; conditions: RXF 393, 48 h, read-out: Activity
A549 = test: Growth inhibition of human A549/ATCC cells assessed as cell growth at 10^-6 M incubated for 48 hrs by sulforhodamine B assay relative to control; conditions: A549, 48 h, read-out: Activity
U-251 [1] = test: Cytotoxicity against human U251 cells after 48 hrs by SRB assay; conditions: U-251, 48 h
HCT-15 [2] = test: Growth inhibition of human HCT15 cells assessed as cell growth at 10^-8 M incubated for 48 hrs by sulforhodamine B assay relative to control; conditions: HCT-15, 48 h, read-out: Activity
SNB-75 = test: Growth inhibition of human SNB75 cells assessed as cell growth at 10^-8 M incubated for 48 hrs by sulforhodamine B assay relative to control; conditions: SNB-75, 48 h, read-out: Activity
EKVX = test: Growth inhibition of human EKVX cells assessed as cell growth at 10^-7 M incubated for 48 hrs by sulforhodamine B assay relative to control; conditions: read-out: Activity
Hs-578T = test: Growth inhibition of human Hs 578T cells assessed as cell growth at 10^-5 M incubated for 48 hrs by sulforhodamine B assay relative to control; conditions: read-out: Activity
NCI-H226 = test: Growth inhibition of human NCI-H226 cells assessed as cell growth at 10^-7 M incubated for 48 hrs by sulforhodamine B assay relative to control; conditions: NCI-H226, 48 h, read-out: Activity
HCT-15 [3] = test: Growth inhibition of human HCT15 cells assessed as cell growth at 10^-5 M incubated for 48 hrs by sulforhodamine B assay relative to control; conditions: HCT-15, 48 h, read-out: Activity
RPMI-8226 = test: Growth inhibition of human RPMI8226 cells assessed as cell growth at 10^-6 M incubated for 48 hrs by sulforhodamine B assay relative to control; conditions: RPMI-8226, 48 h, read-out: Activity
SK-OV-3 = test: Cytotoxicity against human SKOV3 cells after 48 hrs by SRB assay; conditions: SK-OV-3, 48 h
HCT-15 [4] = test: Growth inhibition of human HCT15 cells assessed as cell growth at 10^-6 M incubated for 48 hrs by sulforhodamine B assay relative to control; conditions: HCT-15, 48 h, read-out: Activity
CCRF-CEM = test: Growth inhibition of human CCRF-CEM cells assessed as cell growth at 10^-4 M incubated for 48 hrs by sulforhodamine B assay relative to control; conditions: read-out: Activity
K562 [5] = test: Growth inhibition of human K562 cells assessed as cell growth at 10^-5 M incubated for 48 hrs by sulforhodamine B assay relative to control; conditions: K562, 48 h, read-out: Activity
SF-295 = test: Growth inhibition of human SF295 cells assessed as cell growth at 10^-7 M incubated for 48 hrs by sulforhodamine B assay relative to control; conditions: SF-295, 48 h, read-out: Activity
OVCAR-8 = test: Growth inhibition of human OVCAR8 cells assessed as cell growth at 10^-6 M incubated for 48 hrs by sulforhodamine B assay relative to control; conditions: OVCAR-8, 48 h, read-out: Activity
HOP-62 [6] = test: Growth inhibition of human HOP62 cells assessed as cell growth at 10^-6 M incubated for 48 hrs by sulforhodamine B assay relative to control; conditions: HOP-62, 48 h, read-out: Activity
HCT-116 = test: Growth inhibition of human HCT116 cells assessed as cell growth at 10^-8 M incubated for 48 hrs by sulforhodamine B assay relative to control; conditions: HCT-116, 48 h, read-out: Activity
U-251 [7] = test: Growth inhibition of human U251 cells assessed as cell growth at 10^-6 M incubated for 48 hrs by sulforhodamine B assay relative to control; conditions: U-251, 48 h, read-out: Activity
NCI-H460 = test: Growth inhibition of human NCI-H460 cells assessed as cell growth at 10^-7 M incubated for 48 hrs by sulforhodamine B assay relative to control; conditions: NCI-H460, 48 h, read-out: Activity
OVCAR-3 = test: Cytotoxicity against human OVCAR3 cells after 48 hrs by SRB assay; conditions: OVCAR-3, 48 h
HOP-62 [8] = test: Growth inhibition of human HOP62 cells assessed as cell growth at 10^-8 M incubated for 48 hrs by sulforhodamine B assay relative to control; conditions: HOP-62, 48 h, read-out: Activity
ACHN [9] = test: Cytotoxicity against human ACHN cells after 48 hrs by SRB assay
NCI/ADR-RES = test: Growth inhibition of human NCI/ADR-RES cells assessed as cell growth at 10^-8 M incubated for 48 hrs by sulforhodamine B assay relative to control; conditions: read-out: Activity
K562 [10] = test: Growth inhibition of human K562 cells assessed as cell growth at 10^-8 M incubated for 48 hrs by sulforhodamine B assay relative to control; conditions: K562, 48 h, read-out: Activity
ACHN [11] = test: Growth inhibition of human ACHN cells assessed as cell growth at 10^-4 M incubated for 48 hrs by sulforhodamine B assay relative to control; conditions: read-out: Activity
DU-145 = test: Growth inhibition of human DU145 cells assessed as cell growth at 10^-4 M incubated for 48 hrs by sulforhodamine B assay relative to control; conditions: DU-145, 48 h, read-out: Activity
MDA-MB-435 = test: Growth inhibition of human MDA-MB-435 cells assessed as cell growth at 10^-8 M incubated for 48 hrs by sulforhodamine B assay relative to control; conditions: MDA-MB-435, 48 h, read-out: Activity
HCC 2998 = test: Cytotoxicity against human HCC2998 cells after 48 hrs by SRB assay; conditions: HCC 2998, 48 h
HOP-92 = test: Growth inhibition of human HOP92 cells assessed as cell growth at 10^-6 M incubated for 48 hrs by sulforhodamine B assay relative to control; conditions: HOP-92, 48 h, read-out: Activity
OVCAR-4 [12] = test: Growth inhibition of human OVCAR4 cells assessed as cell growth at 10^-4 M incubated for 48 hrs by sulforhodamine B assay relative to control; conditions: OVCAR-4, 48 h, read-out: Activity
OVCAR-4 [13] = test: Growth inhibition of human OVCAR4 cells assessed as cell growth at 10^-8 M incubated for 48 hrs by sulforhodamine B assay relative to control; conditions: OVCAR-4, 48 h, read-out: Activity
UO-31 = test: Growth inhibition of human UO31 cells assessed as cell growth at 10^-6 M incubated for 48 hrs by sulforhodamine B assay relative to control; conditions: UO-31, 48 h, read-out: Activity
[14] = read-out: pLC50 (the source's name) (converted)

C#C[C@@]1(O)[C@@H](CO)O[C@@H](n2ccc3c(N)ncnc32)[C@@H]1O
growth at 0.01 µM (RXF 393): 99% | growth at 1 µM (A549): 56% | TGI (U-251 [1]; read-out: TGI): 11.8 µM | GI50 (U-251 [1]; read-out: pGI50 (converted)): 2.45 µM | CC50 (U-251 [1]; [14]): > 100 µM | TGI (U-251 [1]; read-out: pTGI (converted)): 11.7 µM | growth at 0.01 µM (HCT-15 [2]): 92% | growth at 0.01 µM (SNB-75): 86% | growth at 0.1 µM (EKVX): 92% | growth at 10 µM (Hs-578T): 19% | growth at 0.1 µM (NCI-H226): 111% | growth at 10 µM (HCT-15 [3]): -24% | growth at 1 µM (RPMI-8226): 44% | TGI (SK-OV-3; read-out: TGI): 5.24 µM | GI50 (SK-OV-3; read-out: pGI50 (converted)): 1.07 µM | CC50 (SK-OV-3; [14]): > 100 µM | TGI (SK-OV-3; read-out: pTGI (converted)): 5.25 µM | growth at 1 µM (HCT-15 [4]): 48% | growth at 100 µM (CCRF-CEM): 9% | growth at 10 µM (K562 [5]): 6% | growth at 0.1 µM (SF-295): 98% | growth at 1 µM (OVCAR-8): 51% | growth at 1 µM (HOP-62 [6]): 77% | growth at 0.01 µM (HCT-116): 91% | growth at 1 µM (U-251 [7]): 80% | growth at 0.1 µM (NCI-H460): 91% | TGI (OVCAR-3; read-out: TGI): 12 µM | GI50 (OVCAR-3; read-out: pGI50 (converted)): 2.95 µM | CC50 (OVCAR-3; [14]): > 100 µM | TGI (OVCAR-3; read-out: pTGI (converted)): 12 µM | growth at 0.01 µM (HOP-62 [8]): 87% | GI50 (ACHN [9]): 0.562 µM | CC50 (ACHN [9]; read-out: LC50 (the source's name)): > 100 µM | TGI (ACHN [9]; read-out: TGI): 4.48 µM | TGI (ACHN [9]; read-out: pTGI (converted)): 4.47 µM | growth at 0.01 µM (NCI/ADR-RES): 97% | growth at 0.01 µM (K562 [10]): 103% | growth at 100 µM (ACHN [11]): -24% | growth at 100 µM (DU-145): -48% | growth at 0.01 µM (MDA-MB-435): 92% | TGI (HCC 2998; read-out: TGI): 3.12 µM | GI50 (HCC 2998; read-out: pGI50 (converted)): 1.45 µM | CC50 (HCC 2998; [14]): 6.76 µM | TGI (HCC 2998; read-out: pTGI (converted)): 3.09 µM | growth at 1 µM (HOP-92): 86% | growth at 100 µM (OVCAR-4 [12]): -100% | growth at 0.01 µM (OVCAR-4 [13]): 93% | growth at 1 µM (UO-31): 69%

Source: ChEMBL document CHEMBL4270599, “Synthesis of a 3'-C-ethynyl-β-d-ribofuranose purine nucleoside library: Discovery of C7-deazapurine analogs as potent antiproliferative nucleosides” (Eur J Med Chem, 2018)
